Consider three compounds from patent publication US20030215462A1, “Use of UGT inhibitors to increase bioavailability” (priority 2001, published 2003).

One series deals with T1, UGT1A3 (Homo sapiens, UniProt P35503).
T1 sequence (P35503 29-534): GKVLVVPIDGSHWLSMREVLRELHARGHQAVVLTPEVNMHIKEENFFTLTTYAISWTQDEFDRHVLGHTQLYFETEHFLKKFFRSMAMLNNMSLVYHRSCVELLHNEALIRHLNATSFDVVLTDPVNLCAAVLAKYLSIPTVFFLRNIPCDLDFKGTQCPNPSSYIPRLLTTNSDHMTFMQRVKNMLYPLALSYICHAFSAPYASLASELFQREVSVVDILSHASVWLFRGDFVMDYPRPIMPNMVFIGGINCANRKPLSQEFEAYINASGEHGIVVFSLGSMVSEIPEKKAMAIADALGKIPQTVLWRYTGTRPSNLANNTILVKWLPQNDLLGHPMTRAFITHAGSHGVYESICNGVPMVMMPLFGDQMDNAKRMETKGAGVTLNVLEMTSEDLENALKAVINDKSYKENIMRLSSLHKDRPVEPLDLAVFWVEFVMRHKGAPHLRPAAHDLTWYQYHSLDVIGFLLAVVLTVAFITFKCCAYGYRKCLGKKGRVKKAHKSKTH
In words: in vitro.

The target of series [1] is T2, UGT1A8 (Homo sapiens, UniProt Q9HAW9).
T2 sequence (Q9HAW9 26-530): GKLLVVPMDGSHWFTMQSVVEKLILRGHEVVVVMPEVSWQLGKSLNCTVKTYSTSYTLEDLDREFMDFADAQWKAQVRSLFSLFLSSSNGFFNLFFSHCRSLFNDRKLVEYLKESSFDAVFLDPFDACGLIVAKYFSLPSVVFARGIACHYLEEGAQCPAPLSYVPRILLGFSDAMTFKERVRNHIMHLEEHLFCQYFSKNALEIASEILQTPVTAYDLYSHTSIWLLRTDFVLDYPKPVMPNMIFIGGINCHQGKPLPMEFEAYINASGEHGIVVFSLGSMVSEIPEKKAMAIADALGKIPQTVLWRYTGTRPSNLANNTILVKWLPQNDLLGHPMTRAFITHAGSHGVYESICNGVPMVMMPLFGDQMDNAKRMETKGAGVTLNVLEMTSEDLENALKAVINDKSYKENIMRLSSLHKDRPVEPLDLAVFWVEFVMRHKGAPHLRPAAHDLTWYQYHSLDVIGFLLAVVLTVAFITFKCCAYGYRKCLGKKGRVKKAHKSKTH
The series is described as follows: in vitro. As to conditions: pH 7.5, % of control metabolism.
Procedure: (§1) Compounds were eluted using a binary solvent gradient system. Solvent A was water brought to pH 8 with NH4OH. Solvent B was methanol. Solvent flow rate was 1 ml/min and the column temperature was maintained at 50° C. Detection was at 280 nm. […] The system was then returned to the initial conditions and equilibrated for 3 min.

Series [2] deals with T2, UGT1A8. In words: Inhibition of raloxifene glucuronidation by recombinant UGT1A8 Supersomes. The following applies: UGT1A8.
Procedure: as §1
The next series deals with T3, UGT1A1 (Homo sapiens, UniProt P22309).
T3 sequence (P22309 26-533): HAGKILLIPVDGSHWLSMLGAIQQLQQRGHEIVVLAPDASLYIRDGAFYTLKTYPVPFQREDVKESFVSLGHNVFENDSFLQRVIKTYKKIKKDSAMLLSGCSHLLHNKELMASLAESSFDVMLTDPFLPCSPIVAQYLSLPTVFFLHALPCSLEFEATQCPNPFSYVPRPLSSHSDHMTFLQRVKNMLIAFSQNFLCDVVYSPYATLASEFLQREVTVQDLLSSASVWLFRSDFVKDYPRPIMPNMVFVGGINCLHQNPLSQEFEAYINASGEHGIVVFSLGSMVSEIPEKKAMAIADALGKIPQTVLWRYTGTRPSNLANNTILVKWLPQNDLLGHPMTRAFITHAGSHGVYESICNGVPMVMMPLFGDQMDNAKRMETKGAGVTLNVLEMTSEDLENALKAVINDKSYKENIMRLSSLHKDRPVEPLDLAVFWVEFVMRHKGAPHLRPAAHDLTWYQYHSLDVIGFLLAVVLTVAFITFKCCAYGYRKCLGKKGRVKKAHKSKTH
In words: in vitro.

Series [3] relates to T4, UGT enzymes of human liver microsomes.
T4 construct: other: liver 062101
The series is described as follows: Inhibition of 2ME2 glucuronidation (MG1, MG2) in human liver microsomes. It is filed as biochemical. As to conditions: liver 062101, 2ME2 50 μM. The text has this: Compounds were eluted using a binary solvent gradient system where solvent A was dilute phosphoric acid (pH 3) and solvent B was 80:20 acetonitrile-methanol. […] Detection was at 280 nm.

For a further series, the target named is T5, UGT1A9 (Homo sapiens, UniProt O60656).
T5 sequence (O60656 26-530): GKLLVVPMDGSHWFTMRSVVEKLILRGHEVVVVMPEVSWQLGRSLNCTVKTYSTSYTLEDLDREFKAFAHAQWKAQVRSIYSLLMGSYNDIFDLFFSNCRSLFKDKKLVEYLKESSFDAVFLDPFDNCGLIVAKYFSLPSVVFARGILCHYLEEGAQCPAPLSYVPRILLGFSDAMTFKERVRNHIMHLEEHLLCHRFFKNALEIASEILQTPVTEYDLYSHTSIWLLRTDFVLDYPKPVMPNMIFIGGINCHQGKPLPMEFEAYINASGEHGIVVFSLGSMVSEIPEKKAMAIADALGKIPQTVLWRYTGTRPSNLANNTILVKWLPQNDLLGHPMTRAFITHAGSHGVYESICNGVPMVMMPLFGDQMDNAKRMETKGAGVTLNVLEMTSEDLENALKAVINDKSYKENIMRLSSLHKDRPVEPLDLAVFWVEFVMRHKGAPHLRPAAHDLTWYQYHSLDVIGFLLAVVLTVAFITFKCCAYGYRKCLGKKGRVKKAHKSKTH
In words: in vitro.

Where [4] appears, read: pH 7.5, % of control metabolism, raloxifene G1.
Setting [5] is: pH 7.5, % of control metabolism, raloxifene G2.
Setting [6] is: pH 7.5, Inhibition of raloxifene glucuronidation, G1, UGT1A3.
The mark [7] stands for this setting: pH 7.5, Inhibition of raloxifene glucuronidation, G2, UGT1A3.
The mark [8] stands for this setting: pH 7.5, Inhibition of raloxifene glucuronidation, UGT1A9, first line per inhibitor (G1).
[9] abbreviates: pH 7.5, Inhibition of raloxifene glucuronidation, UGT1A9, second line per inhibitor (G2).
The mark [10] stands for this setting: pH 7.5, Inhibition of raloxifene glucuronidation, G1, UGT1A1.
Where [11] appears, read: pH 7.5, Inhibition of raloxifene glucuronidation, G2, UGT1A1.

SMILES strings stand for the structures.

Procedure for UGT1A1: as §1
Procedure for UGT1A3: as §1
Procedure for UGT1A9: as §1

Turning to `C=CCc1ccc(O)c(OC)c1` [Eugenol], the activity at 15 min, 50 µM at UGT1A3 (setting [4]) is 89%; at UGT1A3 (setting [5]) it was 85%; on UGT1A3 (setting [6]), 89%; on UGT1A3 (setting [7]), 85%; on UGT1A8 [1] (raloxifene G1), 107%; on UGT1A8 [1] (raloxifene G2), 103%. The activity at 15 min, 50 µM came to 85% on UGT1A1 (pH 7.5, % of control metabolism, raloxifene G1, UGT1A1, inhibitor 50 μM); 79% on UGT1A1 (pH 7.5, % of control metabolism, raloxifene G2, UGT1A1, inhibitor 50 μM); 85% on UGT1A1 (pH 7.5, Inhibition of raloxifene glucuronidation, G1, UGT1A1, G1, inhibitor 50 μM, raloxifene 50 μM, 250 μg/ml Supersomes, 1 mM UDPGA, 15 min); 79% at UGT1A1 (pH 7.5, Inhibition of raloxifene glucuronidation, G2, UGT1A1, G2, inhibitor 50 μM, raloxifene 50 μM, 250 μg/ml Supersomes, 1 mM UDPGA, 15 min); 32% on UGT1A9 (setting [4]); 29% at UGT1A9 (setting [5]). Moreover, the activity at 15 min, 50 µM came to 32% on UGT1A9 (setting [8]) and 29% on UGT1A9 (setting [9]). Further, the “inhibition of raloxifene glucuronidation, in words” value on UGT1A8 [2] is reported as “ineffective”. Moreover, the “residual metabolism (% of control), 2ME2 MG2” value in series [3] (inhibitor 100 μM) is 72 (1) %. In addition, the activity at 15 min, 25 µM was 56% at UGT1A9 (setting [4]), 51% on UGT1A9 (setting [5]), 56% on UGT1A9 (setting [8]) and 51% on UGT1A9 (setting [9]).

In the case of `O=C(O[C@@H]1Cc2c(O)cc(O)cc2O[C@@H]1c1ccc(O)c(O)c1)c1cc(O)c(O)c(O)c1` [Epicatechin gallate], the activity at 15 min, 50 µM on UGT1A3 (setting [4]) was 57%; at UGT1A3 (setting [5]), 42%; at UGT1A3 (setting [6]) it was 57%; at UGT1A3 (setting [7]), 42%; at UGT1A8 [1] (raloxifene G1), 71%; on UGT1A8 [1] (raloxifene G2), 53%. Further, the activity at 15 min, 50 µM at UGT1A1 (setting [4]) amounted to 23%; on UGT1A1 (setting [5]), 25%; on UGT1A1 (setting [10]), 23%; on UGT1A1 (setting [11]) it was 25%; at UGT1A9 (setting [4]), 48%; at UGT1A9 (setting [5]), 45%. The activity at 15 min, 25 µM came to 39% on UGT1A1 (setting [4]), 43% at UGT1A1 (setting [5]), 39% at UGT1A1 (setting [10]) and 43% at UGT1A1 (setting [11]). Further, the “residual metabolism (% of control), 2ME2 MG1” value is listed as 47 (1) % in series [3] (inhibitor 25 μM), 33 (1) % in series [3] (inhibitor 50 μM) and 17 (1) % in series [3] (inhibitor 100 μM). The “residual metabolism (% of control), 2ME2 MG2” value in series [3] (inhibitor 25 μM) is 79 (2) %; in series [3] (inhibitor 50 μM) it was 69 (2) %; in series [3] (inhibitor 100 μM) it was 58 (1) %.

As for `O=c1c(O)c(-c2ccc(O)c(O)c2)oc2cc(O)cc(O)c12` [Quercetin], the activity at 15 min, 50 µM turned out to be 95% on UGT1A8 [1] (raloxifene G1); 81% on UGT1A8 [1] (raloxifene G2); 2% on UGT1A1 (setting [4]); 3% on UGT1A1 (setting [5]); 2% at UGT1A1 (setting [10]); 3% at UGT1A1 (setting [11]). The “inhibition of raloxifene glucuronidation, in words” value at UGT1A8 [2] is recorded as “ineffective”. The figures for the activity at 15 min, 10 µM at UGT1A1 (setting [4]) and on UGT1A1 (setting [5]) were 45% and 43%, respectively. For the same compound, the activity at 15 min, 25 µM on UGT1A1 (setting [4]), on UGT1A1 (setting [5]), on UGT1A1 (setting [10]) and at UGT1A1 (setting [11]) was 13% throughout. For the same compound, the values for the activity at 15 min, 2 μM on UGT1A1 (setting [10]) and at UGT1A1 (setting [11]) were 89% and 90%, respectively. In addition, the activity at 15 min, 5 µM at UGT1A1 (setting [10]) was 71%; on UGT1A1 (setting [11]) it was 70%. Moreover, the “residual metabolism (% of control), 2ME2 MG1” value was 63 (3) % in series [3] (inhibitor 25 μM), 30 (4) % in series [3] (inhibitor 50 μM) and 15 (0) % in series [3] (inhibitor 100 μM). Besides, the “residual metabolism (% of control), 2ME2 MG2” value is given as 87 (3) % in series [3] (inhibitor 25 μM), 68 (3) % in series [3] (inhibitor 50 μM) and 50 (2) % in series [3] (inhibitor 100 μM).
